Earlier results in patent US20240350583A1, “COMPOSITION FOR PREVENTING OR TREATING FIBROTIC DISEASES, COMPRISING HAPLN1” (Chung Ang University Industry Academic Cooperation …, priority 2021, published 2024).

Tested on: bleomycin-induced pulmonary fibrosis
Conditions: group treated with prednisolone (Oku et al.); cited from earlier work

## C[C@]12C=CC(=O)C=C1CC[C@@H]1[C@@H]2[C@@H](O)C[C@@]2(C)[C@H]1CC[C@]2(O)C(=O)CO [prednisolone]
  level of TGFβ1, a measure of anti-fibrotic efficacy: no decrease
  levels of inflammation-related biomarkers: decreased
